# Reference: PubChem BioAssay (NCI)
#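 Step 1: Grow cells in 96-well plates. Step 2: Expose to compound for 48 hours at 5 concentrations. Step 3: Interpolate endpoints linearly; if unreached, use highest concentration. TGI: concentration producing complete growth inhibition.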
# Assays:
# Assay in all cases: NCI tumour cell line growth inhibition, 48 h
# MDA-MB-435 = test system: MDA-MB-435
# HCT-116 colon = test system: HCT-116 colon
# HOP-62 NSCLC = test system: HOP-62 NSCLC
# SF-268 CNS = test system: SF-268 CNS
# OVCAR-8 ovarian = test system: OVCAR-8 ovarian
# UO-31 renal = test system: UO-31 renal
# HOP-92 NSCLC = test system: HOP-92 NSCLC
# NCI-H23 lung = test system: NCI-H23 lung
# CAKI-1 renal = test system: CAKI-1 renal
# NCI-H226 lung = test system: NCI-H226 lung
# RXF 393 renal = test system: RXF 393 renal
# A549 NSCLC = test system: A549 NSCLC
# SK-MEL-5 melanoma = test system: SK-MEL-5 melanoma
# SK-MEL-28 melanoma = test system: SK-MEL-28 melanoma
# OVCAR-3 ovarian = test system: OVCAR-3 ovarian
# SR leukemia = test system: SR leukemia
# NCI-H522 lung = test system: NCI-H522 lung
# SF-295 CNS = test system: SF-295 CNS
# HS 578T breast = test system: HS 578T breast
# BT-549 breast = test system: BT-549 breast
# NCI/ADR-RES ovarian = test system: NCI/ADR-RES ovarian
# SN12C renal = test system: SN12C renal
# EKVX NSCLC = test system: EKVX NSCLC
# MOLT-4 leukemia = test system: MOLT-4 leukemia
# SW-620 colon = test system: SW-620 colon
# SNB-75 CNS = test system: SNB-75 CNS
# COLO 205 colon = test system: COLO 205 colon
# MDA-MB-231 breast = test system: MDA-MB-231 breast
# HCC-2998 colon = test system: HCC-2998 colon
# SF-539 CNS = test system: SF-539 CNS
# DU-145 prostate = test system: DU-145 prostate
# MCF7 breast = test system: MCF7 breast
# UACC-62 melanoma = test system: UACC-62 melanoma
# T-47D breast = test system: T-47D breast
# ACHN renal = test system: ACHN renal
# MALME-3M melanoma = test system: MALME-3M melanoma
# 786-0 renal = test system: 786-0 renal
# IGROV1 ovarian = test system: IGROV1 ovarian
# HT29 colon = test system: HT29 colon
# CCRF-CEM leukemia = test system: CCRF-CEM leukemia
# A498 renal = test system: A498 renal
# PC-3 prostate = test system: PC-3 prostate
# SK-OV-3 ovarian = test system: SK-OV-3 ovarian
# HCT-15 colon = test system: HCT-15 colon
# M14 melanoma = test system: M14 melanoma
# KM12 colon = test system: KM12 colon
# SNB-19 CNS = test system: SNB-19 CNS
# U251 CNS = test system: U251 CNS
# UACC-257 melanoma = test system: UACC-257 melanoma
# K-562 leukemia = test system: K-562 leukemia
# TK-10 renal = test system: TK-10 renal
# MDA-N = test system: MDA-N
# OVCAR-4 ovarian = test system: OVCAR-4 ovarian
# OVCAR-5 ovarian = test system: OVCAR-5 ovarian
# LOX IMVI melanoma = test system: LOX IMVI melanoma
# HOP-18 NSCLC = test system: HOP-18 NSCLC
# DMS 273 small cell lung = test system: DMS 273 small cell lung
# SK-MEL-2 melanoma = test system: SK-MEL-2 melanoma
# KM20L2 colon = test system: KM20L2 colon
# XF 498 CNS = test system: XF 498 CNS
# DMS 114 small cell lung = test system: DMS 114 small cell lung
# RPMI-8226 leukemia = test system: RPMI-8226 leukemia
# M19-MEL melanoma = test system: M19-MEL melanoma
# NCI-H460 lung = test system: NCI-H460 lung
# DLD-1 colon = test system: DLD-1 colon
# HL-60(TB) leukemia = test system: HL-60(TB) leukemia
structure (smiles),measurement,setting,value
CCn1c(=O)c2c3ccc(OC)cc3[nH]c2c2ccc(OC)cc21,TGI,MDA-MB-435,> 100 µM
same,TGI,HCT-116 colon,> 100 µM
same,TGI,HOP-62 NSCLC,> 100 µM
same,TGI,SF-268 CNS,> 100 µM
same,TGI,OVCAR-8 ovarian,> 100 µM
same,TGI,UO-31 renal,> 100 µM
same,TGI,HOP-92 NSCLC,> 100 µM
same,TGI,NCI-H23 lung,> 100 µM
same,TGI,CAKI-1 renal,> 100 µM
same,TGI,NCI-H226 lung,> 100 µM
same,TGI,RXF 393 renal,> 100 µM
same,TGI,A549 NSCLC,> 100 µM
same,TGI,SK-MEL-5 melanoma,> 100 µM
same,TGI,SK-MEL-28 melanoma,> 100 µM
same,TGI,OVCAR-3 ovarian,> 100 µM
same,TGI,SR leukemia,> 100 µM
same,TGI,NCI-H522 lung,> 100 µM
same,TGI,SF-295 CNS,> 100 µM
same,TGI,HS 578T breast,> 100 µM
same,TGI,BT-549 breast,> 100 µM
same,TGI,NCI/ADR-RES ovarian,> 100 µM
same,TGI,SN12C renal,> 100 µM
same,TGI,EKVX NSCLC,> 100 µM
same,TGI,MOLT-4 leukemia,> 100 µM
same,TGI,SW-620 colon,> 100 µM
same,TGI,SNB-75 CNS,96.1 µM
same,TGI,COLO 205 colon,> 100 µM
same,TGI,MDA-MB-231 breast,> 100 µM
same,TGI,HCC-2998 colon,62.7 µM
same,TGI,SF-539 CNS,> 100 µM
same,TGI,DU-145 prostate,> 100 µM
same,TGI,MCF7 breast,> 100 µM
same,TGI,UACC-62 melanoma,> 100 µM
same,TGI,T-47D breast,> 100 µM
same,TGI,ACHN renal,> 100 µM
same,TGI,MALME-3M melanoma,> 100 µM
same,TGI,786-0 renal,> 100 µM
same,TGI,IGROV1 ovarian,> 100 µM
same,TGI,HT29 colon,> 100 µM
same,TGI,CCRF-CEM leukemia,> 100 µM
same,TGI,A498 renal,> 100 µM
same,TGI,PC-3 prostate,> 100 µM
same,TGI,SK-OV-3 ovarian,> 100 µM
same,TGI,HCT-15 colon,> 100 µM
same,TGI,M14 melanoma,> 100 µM
same,TGI,KM12 colon,> 100 µM
same,TGI,SNB-19 CNS,> 100 µM
same,TGI,U251 CNS,> 100 µM
same,TGI,UACC-257 melanoma,> 100 µM
same,TGI,K-562 leukemia,> 100 µM
same,TGI,TK-10 renal,> 100 µM
same,TGI,MDA-N,> 100 µM
same,TGI,OVCAR-4 ovarian,> 100 µM
same,TGI,OVCAR-5 ovarian,> 100 µM
O=C(Oc1ccc2c(-c3ccccc3)c(C(=O)Nc3ccc(Cl)cc3)c(=O)oc2c1)c1ccccc1,TGI,LOX IMVI melanoma,> 100 µM
same,TGI,HCT-116 colon,> 100 µM
same,TGI,HOP-62 NSCLC,> 100 µM
same,TGI,OVCAR-8 ovarian,> 100 µM
same,TGI,UO-31 renal,> 100 µM
same,TGI,NCI-H23 lung,> 100 µM
same,TGI,NCI-H226 lung,> 100 µM
same,TGI,RXF 393 renal,> 100 µM
same,TGI,A549 NSCLC,> 100 µM
same,TGI,SK-MEL-5 melanoma,> 100 µM
same,TGI,HOP-18 NSCLC,> 100 µM
same,TGI,SK-MEL-28 melanoma,> 100 µM
same,TGI,DMS 273 small cell lung,> 100 µM
same,TGI,OVCAR-3 ovarian,> 100 µM
same,TGI,SK-MEL-2 melanoma,> 100 µM
same,TGI,NCI-H522 lung,> 100 µM
same,TGI,SF-295 CNS,> 100 µM
same,TGI,SN12C renal,> 100 µM
same,TGI,EKVX NSCLC,> 100 µM
same,TGI,MOLT-4 leukemia,> 100 µM
same,TGI,KM20L2 colon,> 100 µM
same,TGI,SW-620 colon,> 100 µM
same,TGI,SNB-75 CNS,> 100 µM
same,TGI,XF 498 CNS,> 100 µM
same,TGI,COLO 205 colon,> 100 µM
same,TGI,DMS 114 small cell lung,> 100 µM
same,TGI,SF-539 CNS,> 100 µM
same,TGI,UACC-62 melanoma,> 100 µM
same,TGI,ACHN renal,> 100 µM
same,TGI,MALME-3M melanoma,> 100 µM
same,TGI,786-0 renal,> 100 µM
same,TGI,IGROV1 ovarian,> 100 µM
same,TGI,HT29 colon,> 100 µM
same,TGI,RPMI-8226 leukemia,> 100 µM
same,TGI,M19-MEL melanoma,> 100 µM
same,TGI,CCRF-CEM leukemia,> 100 µM
same,TGI,NCI-H460 lung,> 100 µM
same,TGI,SK-OV-3 ovarian,> 100 µM
same,TGI,HCT-15 colon,> 100 µM
same,TGI,M14 melanoma,> 100 µM
same,TGI,KM12 colon,> 100 µM
same,TGI,SNB-19 CNS,> 100 µM
same,TGI,DLD-1 colon,> 100 µM
same,TGI,U251 CNS,> 100 µM
same,TGI,HL-60(TB) leukemia,> 100 µM
same,TGI,UACC-257 melanoma,> 100 µM
same,TGI,K-562 leukemia,> 100 µM
same,TGI,TK-10 renal,> 100 µM
